# According to the supplement of paper PMC11061612:
# Experiments:
# Assay in all cases: combination Emax (second highest fraction inhibited in the dose matrix, 72 h); higher = more inhibition; extreme values may be limits of the assay
# H4 (Low Grade Glioma) = system: H4 (Low Grade Glioma)
# Summary of the method: (§1)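 Bliss excess equals the observed combination effect minus the expected value EA + EB − EA·EB, where EA and EB are the effects of each agent alone. Combination Emax is the second-highest inhibition within the matrix. Inhibition was scaled from CellTiter-Glo 2.0 luminescence, with 0 set by vehicle wells and 1 by blank wells, after 72 hours of two-drug dosing of cells plated in 1536-well plates.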
# [1] = system: SW948 (Colorectal Carcinoma)
# Summary of the method: as §1
# [2] = system: TYK-nu (Ovarian Carcinoma)
# Summary of the method: as §1
# [3] = system: SK-UT-1 (Other Solid Carcinomas)
# Summary of the method: as §1
# [4] = system: SKN-3 (Head and Neck Carcinoma)
# Summary of the method: as §1
# [5] = system: YT (Other Blood Carcinomas)
# Summary of the method: as §1
# [6] = system: SW48 (Colorectal Carcinoma)
# Summary of the method: as §1
# [7] = system: 647-V (Bladder Carcinoma)
# Summary of the method: as §1
# D-392MG (Glioblastoma) = system: D-392MG (Glioblastoma)
# Summary of the method: as §1
# Saos-2 (Osteosarcoma) = system: Saos-2 (Osteosarcoma)
# Summary of the method: as §1
# [8] = system: ETK-1 (Biliary Tract Carcinoma)
# Summary of the method: as §1
# EW-22 (Ewing's Sarcoma) = system: EW-22 (Ewing's Sarcoma)
# Summary of the method: as §1
# [9] = system: SNU-61 (Colorectal Carcinoma)
# Summary of the method: as §1
# [10] = system: CAL-39 (Other Solid Carcinomas)
# Summary of the method: as §1
# [11] = system: WSU-DLCL2 (B-Cell Non-Hodgkin's Lymphoma)
# Summary of the method: as §1
# [12] = system: DOK (Oral Cavity Carcinoma)
# Summary of the method: as §1
# MCF7 (Breast Carcinoma) = system: MCF7 (Breast Carcinoma)
# Summary of the method: as §1
# CS1 (Chondrosarcoma) = system: CS1 (Chondrosarcoma)
# Summary of the method: as §1
# [13] = system: SNG-M (Endometrial Carcinoma)
# Summary of the method: as §1
SMILES,combination Emax (H4 (Low Grade Glioma)),combination Emax [1],combination Emax [2],combination Emax [3],combination Emax [4],combination Emax [5],combination Emax [6],combination Emax [7],combination Emax (D-392MG (Glioblastoma)),combination Emax (Saos-2 (Osteosarcoma)),combination Emax [8],combination Emax (EW-22 (Ewing's Sarcoma)),combination Emax [9],combination Emax [10],combination Emax [11],combination Emax [12],combination Emax (MCF7 (Breast Carcinoma)),combination Emax (CS1 (Chondrosarcoma)),combination Emax [13]
"CC(=O)c1c(C)c2cnc(Nc3ccc(N4CCNCC4)cn3)nc2n(C2CCCC2)c1=O [Palbociclib] + CC1(C)CCC(CN2CCN(c3ccc(C(=O)NS(=O)(=O)c4ccc(NCC5CCOCC5)c([N+](=O)[O-])c4)c(Oc4cnc5[nH]ccc5c4)c3)CC2)=C(c2ccc(Cl)cc2)C1 [Venetoclax] (first compound max 10 µM, 7x7, partner max 1 µM)",0.597,0.382,0.401,0.108,0,0.504,0.313,0.098,0.223,0.197,0.281,0.347,0.152,0.255,0.98,0.126,0.339,0.354,0.424
"NC1(C(=O)N[C@@H](CCO)c2ccc(Cl)cc2)CCN(c2ncnc3[nH]ccc23)CC1 [Capivasertib] + CCN(CCO)CCCOc1ccc2c(Nc3cc(CC(=O)Nc4cccc(F)c4)[nH]n3)ncnc2c1 [AZD2811] (first compound max 10 µM, 7x7, partner max 1 µM)",0.58,0.769,0.357,0.522,0.23,0.456,0.983,0.309,0.332,0.586,0.381,0.78,0.242,0.55,1,0.592,0.639,0.417,0.363
"CS(=O)(=O)CCNCc1ccc(-c2ccc3ncnc(Nc4ccc(OCc5cccc(F)c5)c(Cl)c4)c3c2)o1 [Lapatinib] + NC1(c2ccc(-c3nc4ccn5c(=O)[nH]nc5c4cc3-c3ccccc3)cc2)CCC1 [MK-2206] (first compound max 10 µM, 7x7, partner max 10 µM)",0.883,0.655,0.894,0.636,0.835,0.945,0.847,,0.189,0.426,0.947,0.868,,0.999,0.99,0.935,0.953,0.765,0.667
"C=CCn1c(=O)c2cnc(Nc3ccc(N4CCN(C)CC4)cc3)nc2n1-c1cccc(C(C)(C)O)n1 [AZD1775] + C1CN(CCC1(C(=O)N[C@@H](CCO)C2=CC=C(C=C2)Cl)N)C3=NC=NC4=C3C=CN4 [Capivasertib] (first compound max 3 µM, partner max 3 µM)",0.942,0.799,0.695,0.817,0.61,0.949,,0.948,0.42,0.757,0.664,0.786,,0.782,1,0.754,0.706,0.63,0.83
"NC1(C(=O)N[C@@H](CCO)c2ccc(Cl)cc2)CCN(c2ncnc3[nH]ccc23)CC1 [Capivasertib] + CC(=O)c1c(C)c2cnc(Nc3ccc(N4CCNCC4)cn3)nc2n(C2CCCC2)c1=O [Palbociclib] (first compound max 10 µM, 7x7, partner max 10 µM)",0.751,0.57,0.505,0.458,0.474,0.68,0.63,0.277,0.436,0.407,0.419,0.575,0.168,0.672,1,0.596,0.676,0.442,0.501
"CS(=O)(=O)CCNCc1ccc(-c2ccc3ncnc(Nc4ccc(OCc5cccc(F)c5)c(Cl)c4)c3c2)o1 [Lapatinib] + Cn1cnc2c(F)c(Nc3ccc(Br)cc3Cl)c(C(=O)NOCCO)cc21 [Selumetinib] (first compound max 10 µM, 7x7, partner max 10 µM)",0.27,0.774,,0.501,,0.725,0.802,,0.396,0.289,,0.242,,1,0.472,0.933,,0.554,0.43
"Cc1nc(Nc2ncc(C(=O)Nc3c(C)cccc3Cl)s2)cc(N2CCN(CCO)CC2)n1 [Dasatinib] + CC(=O)Nc1cccc(-n2c(=O)n(C3CC3)c(=O)c3c(Nc4ccc(I)cc4F)n(C)c(=O)c(C)c32)c1 [Trametinib] (first compound max 2 µM, 7x7, partner max 1 µM)",0.393,0.764,0.71,0.344,0.575,0.318,0.959,0.483,0.627,0.335,0.781,0.0877,0.626,0.944,0.432,0.904,0.112,0.568,0.798
